Consider two compounds from patent publication US4981856A, “Anti-tumor agents” (Imperial Chemical Industries PLC, priority 1987, dated 1991).

For orientation: IC50 means the point on the concentration scale where inhibition reaches its midpoint.

One data set relates to humans. To be noted: particularly in relation to the liver and kidney; cited from earlier work.
A further data set addresses thymidylate synthetase (Mus musculus, UniProt P07607). Put plainly: inhibitory effect on the enzyme thymidylate synthetase in vitro. In kind it is biochemical. The note with it: in vitro enzyme inhibition; read-out: IC50 against thymidylate synthetase. An excerpt:
(§1) Compounds of this type are believed to act as anti-tumour agents by inhibiting the enzyme thymidylate synthetase. Their anti-tumour activity may be assessed in vitro by determining their inhibitory effect on that enzyme, and in cell cultures by their inhibitory effect on the cell line L1210.
(§2) As also stated above a quinazoline of the invention is believed to act as an anti-tumour agent by inhibiting the enzyme thymidylate synthetase. This anti-tumour activity may be assessed in vitro by determining the inhibitory effect on that enzyme and is cell cultures by the inhibitory effect on the mouse leukaemia cell line L1210 (UK Patent Specification No. 2065653B).

For another data set, the system named is L1210 cell line. Put plainly: inhibitory effect on the mouse leukaemia cell line L1210 in cell culture. To be noted: read-out: IC50 against the L1210 cell line. In kind it is cell-based.
Excerpt: as §1, §2

Chain of thymidylate synthetase (P07607 whole entry): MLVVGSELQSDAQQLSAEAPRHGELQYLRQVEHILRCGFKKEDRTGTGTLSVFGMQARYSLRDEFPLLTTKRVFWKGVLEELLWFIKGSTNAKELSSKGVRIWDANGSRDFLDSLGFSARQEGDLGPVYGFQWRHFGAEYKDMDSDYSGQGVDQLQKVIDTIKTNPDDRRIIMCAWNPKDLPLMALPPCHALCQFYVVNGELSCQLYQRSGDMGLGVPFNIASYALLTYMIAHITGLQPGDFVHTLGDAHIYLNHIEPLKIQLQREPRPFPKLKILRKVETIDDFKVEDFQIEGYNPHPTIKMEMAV

Turning to `C#CCN(Cc1ccc2nc(N)[nH]c(=O)c2c1)c1ccc(C(=O)N[C@@H](CCC(=O)O)C(=O)O)cc1` [CB3717], in the data set with humans, the “symptoms of toxicity in humans” value was “shows symptoms of toxicity in humans, particularly in relation to the liver and kidney”. Regarding `C#CCN(Cc1cc2c(=O)[nH]c(C)nc2cc1C)c1ccc(C(=O)N[C@@H](CCC(=O)O)C(=O)O)cc1` [N-[p-[N-(3,4-dihydro-2,7-dimethyl-4-oxoquinazolin-6-ylmethyl)-N-(prop-2-ynyl)amino]benzoyl]-L-glutamic acid], the half-inhibitory concentration (IC50) is 0.03 µM on thymidylate synthetase and 0.18 µM in the data set on L1210 cell line.
